According to patent US20230133504A1, “METHOD OF TREATING GRAFT-VERSUS-HOST DISEASE” (REGENTS OF THE UNIVERSITY OF MICHIGAN, priority 2021, published 2023):

Columns and labels:
[1] = tested on: acute GVHD in BALB/c recipient mice; assay: acute GVHD model, C57BL/6 (H-2Kb) into BALB/c (H-2Kd) MHC mismatch bone marrow transplantation; type: in vivo, mouse; details: for survival: allogeneic recipients, 25 mg/kg i.p., p<0.001
Protocol: FIGS. 1A-1C. Compound No. 36 treatment of acute GVHD model. BALB/c recipient mice on day 0 received 5×10^6 of bone marrow cells and 1×10^6 of purified splenic T cells from allogeneic C57BL/6 donor or syngeneic BALB/c donor following lethal irradiation with 800 rads on day −1. Recipients received intraperitoneal injections of 25 mg/kg of Compound No. 36 or vector starting on day −1, then three times weekly, from day −1 to day 21. Mice were monitored […]. […] Data in *, P<0.05; **, P<0.01. Syn—syngenic; Allo—allogeneic.
To determine whether Compound No. 36 affects established parameters of acute GVHD, a well-established C57BL/6 (H-2Kb) into a BALB/c (H-2Kd) major histocompatibility complex (MHC) mismatch model was used. On day 0, BALB/c recipient mice received 5×10^6 of bone marrow cells and 1×10^6 of purified splenic T cells from allogeneic C57BL/6 donor or syngeneic BALB/c donor following lethal irradiation with 800 centiGray (units of radiation) on day −1. Recipients received intraperitoneal injections of 25 mg/kg every other day of Compound No. 36 or vector from day −1 to day 21. Mice were monitored daily for survival and weekly for GVHD score.

[2] = tested on: A20 mouse BALB/c lymphoma cell line in BALB/c recipient mice; assay: graft-versus tumor (GVT): acute GVHD model challenged with A20 tumor cells; type: in vivo
Excerpt: FIGS. 2A-2C. Compound No. 36 treatment of acute GVHD model challenged with A20 tumor cells. Using the same method as described in FIGS. 1A-1C, BALB/c recipient mice underwent major histocompatibility complex (MHC) major mismatch allogeneic bone marrow transplantation (BMT) with C57BL/6 donor or with BALB/c donor as syngeneic control. BALB/c recipient mice on day 0 received 5×10^6 of bone marrow cells and 1×10^6 of purified splenic T cells with or without 0.5×10^6 A20 cells inoculum. As indicated here, recipients received intraperitoneal injections of 25 mg/kg of Compound No. 36 or vector starting on day −1, then three time weekly, from day −1 to day 21. Mice were monitored weekly for survival and GVHD score. FIG. 2A indicates body weight changes of animals measured weekly.
Data in *, P<0.05; **, P<0.01. Syn—syngenic; Allo—allogeneic.
As GVHD is tightly linked to the graft-versus tumor (GVT) response, testing was undertaken to determine whether Compound No. 36 treatment reduces the effect of GVT in the same mouse model as for GVHD (Example 1). To that end, a mouse BALB/c lymphoma cell line, A20 (0.5×10^6), thus syngeneic to the recipients, was incorporated to the bone marrow transplantation (BMT) cell inoculum on day 0. Recipients received the same doses of Compound No. 36 or vector from day −1 to day 21 as the above model. Syngeneic recipients of BALB/c to BALB/c were also setup with or without A20 cell inoculum and injected the same doses of Compound No. 36 or vector. Syngeneic recipients challenged with A20 cells got systemic tumor infiltration (lower-limb paralysis, hepatosplenomegaly) and 100% of recipients died within 3 weeks after BMT without Compound No. 36 treatment (FIG. 2A and FIG. 2B).

[3] = tested on: small intestinal organoids; assay: small intestinal organoids culture in vitro (GFP-Lgr5 transgenic mouse crypts); type: cell-based
Protocol: FIGS. 3A-3D display the effect of Compound No. 36 on intestinal organoids culture in vitro. Intestinal organoids were established from culture of small intestinal crypts in GFP-Lgr5 transgene B6 mice. 3-5 passages of organoids were used to test the effect of Compound No. 36 in vitro. After dissociation of organoids, 100 crypts per well mixed with Matrigel-culture medium were plated in 24-well plate. After the Matrigel polymerized, 500 μL of culture medium with different concentrations of Compound No. 36 or vector were added to each well. The growth of the organoids was checked daily. Three days after coculture, organoid numbers and budding numbers were counted under the microscope and were photographed (FIG. 3A). Then, organoids were mechanically disrupted and dissociated into single cells with TrypLE Express. Cells were stained with anti-CD326, annexin V, and 7-AAD to analyze GFP-Lgr5^hi cells apoptosis by flow cytometry (FIGS. 3B-3D).
To further determine whether Compound No. 36 has any direct GVHD organ (e.g., GI tract) toxicity or conversely, a regenerative effects, in the context of BMT, various concentrations of Compound No. 36 was cocultured with established small intestinal organoids, in which the intestine crypts were from the GFP-Leucine-rich repeat-containing G protein-coupled receptor 5 (Lgr5) transgenic mouse strain. Intestinal organoids were established from culture of small intestinal crypts in GFP-Lgr5 transgene B6 mice. 3-5 passages of organoids were used to test the effect of Compound No. 36 in vitro. After dissociation of organoids, 100 crypts per well mixed with Matrigel-culture medium were plated in 24-well plate. After the Matrigel polymerized, 500 μL of culture medium with different concentrations of Compound No. 36 or vector were added to each well. Orgonoid growth was assessed daily. Three days after coculture, organoid numbers and budding numbers were counted under the microscope and were photographed (FIG. 3A). […] Organoids were then mechanically disrupted and dissociated into single cells with TrypLE Express. […]

`NC(=O)CC[C@H](NC(=O)[C@@H]1CC[C@@H]2CCN(C(=O)CCCCCC#Cc3cccc4c3CN(C3CCC(=O)NC3=O)C4=O)C[C@H](NC(=O)c3cc4cc(C(F)(F)P(=O)(O)O)ccc4[nH]3)C(=O)N21)C(=O)NC(c1ccccc1)c1ccccc1` (stereo partly drawn) [Compound No. 36, ((2-(((5S,8S,10aR)-8-(((S)-5-amino-1-(benzhydrylamino)-1,5-dioxopentan-2-yl)carbamoyl)-3-(8-(2-(2,6-dioxopiperidin-3-yl)-1-oxoisoindolin-4-yl)oct-7-ynoyl)-6-oxodecahydropyrrolo[1,2-a][1,5]diazocin-5-yl)carbamoyl)-1H-indol-5-yl)difluoromethyl)phosphonic acid] was tested, and the “acute GVHD severity (body weight loss and clinical GVHD scores)” value ([1]; allogeneic C57BL/6 to BALB/c, 25 mg/kg intraperitoneal every other day, day -1 to day 21, vs. vector) was “significantly reduce acute GVHD severity by reducing body weight loss and clinical GVHD scores”, the survival ([1]; day 50, vector 50%) was 100% and the survival ([1]; day 100, vector 12%) was 53%. The “signs of toxicity or GVHD” value ([1]; syngeneic recipients BALB/c to BALB/c, same doses (25 mg/kg i.p.)) was “did not present any signs of toxicity”, the survival rate ([1]; syngeneic recipients BALB/c to BALB/c, same doses, until the end point) was 100% and the tumor-related death ([2]; allogeneic GVHD model challenged with A20 cells, by 6 weeks after BMT) was “no tumor-related death was observed”. For the same compound, the mice survival ([2]; allogeneic GVHD model challenged with A20 cells, by 6 weeks after BMT, vector 50%, p<0.05) was 100%, the GVHD severity ([2]; allogeneic GVHD model challenged with A20 cells, by 6 weeks after BMT, vs. vector) was “significantly reduced GVHD severity” and the survival time ([2]; syngeneic recipients receiving A20 cells (0.5x10^6), 25 mg/kg i.p. day -1 to day 21, vs. no treatment (100% died within 3 weeks)) was “significantly extended the survival time”. For the same compound, the toxicity on intestine ([3]; conclusion from the organoid data) was “does not have significant toxicity on intestine”, the “organoid numbers and budding numbers” value ([3]; three days after coculture, series concentrations) was “No significant changes were observed” and the “Lgr5-GFP+ stem cells and Annexin V expression (apoptosis) by flow cytometry” value ([3]; three days after coculture, vs. vector group) was “no differences between vector group and Compound No. 36 treatment group were observed”.
